For orientation: IC50 means the concentration at which inhibition is half-maximal. In general, Km refers to the substrate concentration at which the rate is half of its maximum.

IC50 and Km data for two molecules are collected here from PMC12053652, “Transport and inhibition mechanisms of human creatine transporter” (Cell Discovery, 2025).

For data set [1], the target named is T1, human creatine transporter (CRT) (Homo sapiens, UniProt P48029).
T1 construct: gene SLC6A8; full-length wild-type
T1 sequence (P48029 1-635): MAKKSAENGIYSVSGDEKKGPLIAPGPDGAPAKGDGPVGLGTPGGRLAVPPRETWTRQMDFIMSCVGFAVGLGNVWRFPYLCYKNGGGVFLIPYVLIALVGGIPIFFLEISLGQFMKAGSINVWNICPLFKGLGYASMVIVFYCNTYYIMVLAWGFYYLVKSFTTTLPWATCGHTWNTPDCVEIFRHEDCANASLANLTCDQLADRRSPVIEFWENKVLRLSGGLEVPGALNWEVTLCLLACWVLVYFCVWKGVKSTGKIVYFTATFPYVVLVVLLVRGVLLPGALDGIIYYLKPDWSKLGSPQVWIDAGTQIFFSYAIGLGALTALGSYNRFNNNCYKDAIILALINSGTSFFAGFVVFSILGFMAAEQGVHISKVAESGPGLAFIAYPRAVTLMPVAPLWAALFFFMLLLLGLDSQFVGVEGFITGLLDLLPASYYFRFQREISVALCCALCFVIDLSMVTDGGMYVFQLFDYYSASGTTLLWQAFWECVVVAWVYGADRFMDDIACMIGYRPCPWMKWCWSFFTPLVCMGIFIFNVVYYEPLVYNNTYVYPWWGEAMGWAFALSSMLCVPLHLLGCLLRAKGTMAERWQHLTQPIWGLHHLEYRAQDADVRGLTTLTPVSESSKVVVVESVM
Description: cryo-EM structure ([…] Å); IC50 from […]creatine uptake inhibition in HEK293 cells. Format: cell-based.

Substrate in data set [2]: CN(CC(=O)O)C(=N)N
Description: cells, lysate or membranes. The conditions noted are these: Na+ and Cl- (Na+[…] and Cl- in the structure) central binding site; Tyr148, Ser417, Ala69, Phe315, Gly73; guanidine group surrounded by Phe68, Tyr148, Phe315; contacts Na+[…]. Format: cell-based, Homo sapiens.

On to `N=C(N)NCCC(=O)O` [RGX, RGX-202], for which, in data set [1], it took 53 µM to reach half-maximal inhibition (IC50).

B1: human creatine transporter (CRT) (Homo sapiens) (protein)
chain: T1 sequence (P48029 1-635)
notes: full-length wild-type
On to B1, for which the Michaelis constant (Km) in data set [2] is 106.3 µM.
